The values that follow come from ChEMBL document CHEMBL5442219.

The structures appear in SMILES notation.

What is called inhibition is the relative decrease from the control value, in per cent.

Holding throughout (conditions): Compound concentration 10 µM
The target in assay [1] is Kappa-type opioid receptor (Homo sapiens) (UniProt P41145).
Description: PDSP Primary Binding target: OPRK1 - Compounds are tested at 10 uM concentration, plate are incubated at room temperature in the dark for 90 minutes. Reaction are stopped by vacuum filtration onto 0.3% polyethyleneimine soaked filter mats using Filtermate harvester. Scintilation cocktail is then melted onto microwave-dried filters on a hot plate and the radio activity is counted in Microbia counter.
The target of assay [2] is Delta-type opioid receptor (Homo sapiens) (UniProt P41143).
Description: PDSP Primary Binding target: OPRD1 - Compounds are tested at 10 uM concentration, plate are incubated at room temperature in the dark for 90 minutes. Reaction are stopped by vacuum filtration onto 0.3% polyethyleneimine soaked filter mats using Filtermate harvester. Scintilation cocktail is then melted onto microwave-dried filters on a hot plate and the radio activity is counted in Microbia counter.
The target of assay [3] is 5-hydroxytryptamine receptor 2B (Homo sapiens) (UniProt P41595).
5-hydroxytryptamine receptor 2B (Homo sapiens), sequence (P41595 whole entry): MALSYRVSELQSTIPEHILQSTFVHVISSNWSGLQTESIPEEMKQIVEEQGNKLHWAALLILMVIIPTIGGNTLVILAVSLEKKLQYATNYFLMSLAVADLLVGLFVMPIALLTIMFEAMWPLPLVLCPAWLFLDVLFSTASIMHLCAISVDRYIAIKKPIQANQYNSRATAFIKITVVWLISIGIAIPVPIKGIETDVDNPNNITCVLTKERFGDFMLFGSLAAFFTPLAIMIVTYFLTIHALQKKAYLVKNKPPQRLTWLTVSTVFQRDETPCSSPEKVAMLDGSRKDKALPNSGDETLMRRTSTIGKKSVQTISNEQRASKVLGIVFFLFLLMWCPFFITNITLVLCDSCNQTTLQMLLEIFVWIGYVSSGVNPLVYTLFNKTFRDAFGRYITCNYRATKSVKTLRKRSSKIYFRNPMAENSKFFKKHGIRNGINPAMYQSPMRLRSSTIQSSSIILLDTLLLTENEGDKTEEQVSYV
Description: PDSP Primary Binding target: HTR2B - Compounds are tested at 10 uM concentration, plate are incubated at room temperature in the dark for 90 minutes. Reaction are stopped by vacuum filtration onto 0.3% polyethyleneimine soaked filter mats using Filtermate harvester. Scintilation cocktail is then melted onto microwave-dried filters on a hot plate and the radio activity is counted in Microbia counter.
The target of assay [4] is T1, 5-hydroxytryptamine receptor 2C (Homo sapiens) (UniProt P28335).
T1 sequence (whole entry): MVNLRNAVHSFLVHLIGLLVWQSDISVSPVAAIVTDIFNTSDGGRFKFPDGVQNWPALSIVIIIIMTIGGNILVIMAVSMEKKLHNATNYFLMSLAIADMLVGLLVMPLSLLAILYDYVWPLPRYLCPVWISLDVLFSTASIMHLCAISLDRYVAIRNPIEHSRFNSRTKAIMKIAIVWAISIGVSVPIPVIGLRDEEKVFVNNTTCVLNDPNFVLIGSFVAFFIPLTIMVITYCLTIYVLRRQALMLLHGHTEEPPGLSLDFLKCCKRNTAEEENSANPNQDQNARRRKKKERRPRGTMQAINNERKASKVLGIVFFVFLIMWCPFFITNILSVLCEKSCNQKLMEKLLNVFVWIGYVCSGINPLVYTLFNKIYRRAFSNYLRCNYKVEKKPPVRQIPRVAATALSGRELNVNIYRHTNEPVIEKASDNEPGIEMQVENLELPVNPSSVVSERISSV
Description: PDSP Primary Binding target: HTR2C - Compounds are tested at 10 uM concentration, plate are incubated at room temperature in the dark for 90 minutes. Reaction are stopped by vacuum filtration onto 0.3% polyethyleneimine soaked filter mats using Filtermate harvester. Scintilation cocktail is then melted onto microwave-dried filters on a hot plate and the radio activity is counted in Microbia counter.

For assay [5], the target named is Sigma non-opioid intracellular receptor 1 (Homo sapiens) (UniProt Q99720).
Sigma non-opioid intracellular receptor 1 (Homo sapiens), sequence (Q99720 whole entry): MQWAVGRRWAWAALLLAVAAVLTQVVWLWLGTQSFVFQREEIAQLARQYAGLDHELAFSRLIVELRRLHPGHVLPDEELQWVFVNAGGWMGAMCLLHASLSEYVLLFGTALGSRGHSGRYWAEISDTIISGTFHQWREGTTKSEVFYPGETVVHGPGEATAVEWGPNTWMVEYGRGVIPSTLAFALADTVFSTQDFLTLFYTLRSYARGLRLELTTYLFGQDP
Description: PDSP Primary Binding target: SIGMAR1 - Compounds are tested at 10 uM concentration, plate are incubated at room temperature in the dark for 90 minutes. Reaction are stopped by vacuum filtration onto 0.3% polyethyleneimine soaked filter mats using Filtermate harvester. Scintilation cocktail is then melted onto microwave-dried filters on a hot plate and the radio activity is counted in Microbia counter.
Assay [6] addresses T2, Muscarinic acetylcholine receptor M2 (Homo sapiens) (UniProt P08172).
T2 sequence (whole entry): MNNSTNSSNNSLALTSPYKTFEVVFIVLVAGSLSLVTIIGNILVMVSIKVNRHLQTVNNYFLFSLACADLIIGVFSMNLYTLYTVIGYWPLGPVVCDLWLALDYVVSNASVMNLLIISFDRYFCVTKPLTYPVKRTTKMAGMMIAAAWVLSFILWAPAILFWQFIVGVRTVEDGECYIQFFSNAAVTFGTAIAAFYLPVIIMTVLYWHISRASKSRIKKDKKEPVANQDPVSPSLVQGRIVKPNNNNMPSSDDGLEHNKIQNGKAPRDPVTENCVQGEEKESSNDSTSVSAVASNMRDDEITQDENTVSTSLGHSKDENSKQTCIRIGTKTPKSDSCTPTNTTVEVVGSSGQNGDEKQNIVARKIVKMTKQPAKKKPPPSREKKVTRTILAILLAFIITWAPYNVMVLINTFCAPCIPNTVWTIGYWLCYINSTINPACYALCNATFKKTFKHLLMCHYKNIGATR
Description: PDSP Primary Binding target: CHRM2 - Compounds are tested at 10 uM concentration, plate are incubated at room temperature in the dark for 90 minutes. Reaction are stopped by vacuum filtration onto 0.3% polyethyleneimine soaked filter mats using Filtermate harvester. Scintilation cocktail is then melted onto microwave-dried filters on a hot plate and the radio activity is counted in Microbia counter.

The target in assay [7] is T3, Alpha-2A adrenergic receptor (Homo sapiens) (UniProt P08913).
T3 sequence (whole entry): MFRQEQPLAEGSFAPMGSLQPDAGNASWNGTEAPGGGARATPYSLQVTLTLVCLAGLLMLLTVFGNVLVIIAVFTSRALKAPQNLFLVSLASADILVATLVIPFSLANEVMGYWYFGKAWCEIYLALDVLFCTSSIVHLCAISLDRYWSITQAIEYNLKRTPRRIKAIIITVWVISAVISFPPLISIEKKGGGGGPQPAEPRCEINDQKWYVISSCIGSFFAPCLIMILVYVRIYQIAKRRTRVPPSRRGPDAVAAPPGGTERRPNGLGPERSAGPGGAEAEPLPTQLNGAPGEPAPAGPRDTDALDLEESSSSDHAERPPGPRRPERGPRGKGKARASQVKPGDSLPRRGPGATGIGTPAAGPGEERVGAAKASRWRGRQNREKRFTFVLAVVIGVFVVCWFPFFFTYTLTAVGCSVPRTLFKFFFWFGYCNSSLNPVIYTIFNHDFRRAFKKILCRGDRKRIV
Description: PDSP Primary Binding target: ADRA2A - Compounds are tested at 10 uM concentration, plate are incubated at room temperature in the dark for 90 minutes. Reaction are stopped by vacuum filtration onto 0.3% polyethyleneimine soaked filter mats using Filtermate harvester. Scintilation cocktail is then melted onto microwave-dried filters on a hot plate and the radio activity is counted in Microbia counter.

The target of assay [8] is T4, Muscarinic acetylcholine receptor M4 (Homo sapiens) (UniProt P08173).
T4 sequence (whole entry): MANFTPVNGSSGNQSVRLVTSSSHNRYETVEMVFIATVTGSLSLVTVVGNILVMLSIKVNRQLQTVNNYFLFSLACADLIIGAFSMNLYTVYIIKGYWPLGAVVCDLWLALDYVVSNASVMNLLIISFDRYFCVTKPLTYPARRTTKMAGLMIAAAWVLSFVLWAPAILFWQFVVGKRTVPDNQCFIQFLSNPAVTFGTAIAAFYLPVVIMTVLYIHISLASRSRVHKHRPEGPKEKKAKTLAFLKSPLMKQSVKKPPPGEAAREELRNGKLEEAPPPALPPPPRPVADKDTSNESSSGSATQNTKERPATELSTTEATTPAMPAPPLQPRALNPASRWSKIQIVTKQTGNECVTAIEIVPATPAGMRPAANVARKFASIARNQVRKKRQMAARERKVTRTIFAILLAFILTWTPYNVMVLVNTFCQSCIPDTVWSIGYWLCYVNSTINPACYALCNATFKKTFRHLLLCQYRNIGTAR
Description: PDSP Primary Binding target: CHRM4 - Compounds are tested at 10 uM concentration, plate are incubated at room temperature in the dark for 90 minutes. Reaction are stopped by vacuum filtration onto 0.3% polyethyleneimine soaked filter mats using Filtermate harvester. Scintilation cocktail is then melted onto microwave-dried filters on a hot plate and the radio activity is counted in Microbia counter.

The target in assay [9] is Beta-2 adrenergic receptor (Homo sapiens) (UniProt P07550).
Beta-2 adrenergic receptor (Homo sapiens), sequence (P07550 whole entry, looked up): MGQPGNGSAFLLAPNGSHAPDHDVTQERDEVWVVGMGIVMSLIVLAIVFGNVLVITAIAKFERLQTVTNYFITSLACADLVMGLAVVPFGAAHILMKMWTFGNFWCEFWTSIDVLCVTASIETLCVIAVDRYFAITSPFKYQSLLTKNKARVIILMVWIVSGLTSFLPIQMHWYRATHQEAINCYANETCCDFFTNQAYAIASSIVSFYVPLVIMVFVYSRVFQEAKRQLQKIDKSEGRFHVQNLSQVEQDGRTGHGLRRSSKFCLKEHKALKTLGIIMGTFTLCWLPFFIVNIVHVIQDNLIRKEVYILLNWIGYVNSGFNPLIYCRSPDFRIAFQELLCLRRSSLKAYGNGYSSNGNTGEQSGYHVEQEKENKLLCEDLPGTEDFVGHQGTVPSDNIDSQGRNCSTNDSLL
Description: PDSP Primary Binding target: ADRB2 - Compounds are tested at 10 uM concentration, plate are incubated at room temperature in the dark for 90 minutes. Reaction are stopped by vacuum filtration onto 0.3% polyethyleneimine soaked filter mats using Filtermate harvester. Scintilation cocktail is then melted onto microwave-dried filters on a hot plate and the radio activity is counted in Microbia counter.
Assay [10] concerns the target D(3) dopamine receptor (Homo sapiens) (UniProt P35462).
Description: PDSP Primary Binding target: DRD3 - Compounds are tested at 10 uM concentration, plate are incubated at room temperature in the dark for 90 minutes. Reaction are stopped by vacuum filtration onto 0.3% polyethyleneimine soaked filter mats using Filtermate harvester. Scintilation cocktail is then melted onto microwave-dried filters on a hot plate and the radio activity is counted in Microbia counter.
Assay [11] has as its target T5, Muscarinic acetylcholine receptor M1 (Homo sapiens) (UniProt P11229).
T5 sequence (whole entry): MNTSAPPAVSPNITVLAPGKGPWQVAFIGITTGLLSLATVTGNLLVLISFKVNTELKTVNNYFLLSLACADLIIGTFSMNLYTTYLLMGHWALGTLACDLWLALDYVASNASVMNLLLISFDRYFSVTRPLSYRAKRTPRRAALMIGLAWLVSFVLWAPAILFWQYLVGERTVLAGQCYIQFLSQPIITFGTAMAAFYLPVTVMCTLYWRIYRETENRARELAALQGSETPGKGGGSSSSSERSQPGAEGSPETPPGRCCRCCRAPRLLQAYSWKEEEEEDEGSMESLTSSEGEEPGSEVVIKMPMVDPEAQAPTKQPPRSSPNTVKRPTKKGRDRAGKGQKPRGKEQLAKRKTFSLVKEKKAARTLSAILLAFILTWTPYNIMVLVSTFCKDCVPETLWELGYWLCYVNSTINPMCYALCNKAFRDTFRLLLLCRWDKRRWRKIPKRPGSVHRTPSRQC
Description: PDSP Primary Binding target: CHRM1 - Compounds are tested at 10 uM concentration, plate are incubated at room temperature in the dark for 90 minutes. Reaction are stopped by vacuum filtration onto 0.3% polyethyleneimine soaked filter mats using Filtermate harvester. Scintilation cocktail is then melted onto microwave-dried filters on a hot plate and the radio activity is counted in Microbia counter.

The target in assay [12] is 5-hydroxytryptamine receptor 6 (Homo sapiens) (UniProt P50406).
5-hydroxytryptamine receptor 6 (Homo sapiens), sequence (P50406 whole entry): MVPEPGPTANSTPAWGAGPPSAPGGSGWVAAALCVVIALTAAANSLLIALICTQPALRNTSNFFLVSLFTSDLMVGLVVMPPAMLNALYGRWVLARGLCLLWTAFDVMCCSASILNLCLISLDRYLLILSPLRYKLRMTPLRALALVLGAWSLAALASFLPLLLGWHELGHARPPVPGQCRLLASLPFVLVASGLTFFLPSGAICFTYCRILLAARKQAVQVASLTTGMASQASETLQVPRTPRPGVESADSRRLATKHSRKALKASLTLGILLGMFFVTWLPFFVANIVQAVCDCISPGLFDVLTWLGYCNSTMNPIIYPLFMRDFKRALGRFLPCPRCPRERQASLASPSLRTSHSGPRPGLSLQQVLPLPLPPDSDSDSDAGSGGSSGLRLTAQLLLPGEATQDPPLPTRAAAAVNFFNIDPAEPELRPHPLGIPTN
Description: PDSP Primary Binding target: HTR6 - Compounds are tested at 10 uM concentration, plate are incubated at room temperature in the dark for 90 minutes. Reaction are stopped by vacuum filtration onto 0.3% polyethyleneimine soaked filter mats using Filtermate harvester. Scintilation cocktail is then melted onto microwave-dried filters on a hot plate and the radio activity is counted in Microbia counter.
The target of assay [13] is D(1B) dopamine receptor (Homo sapiens) (UniProt P21918).
D(1B) dopamine receptor (Homo sapiens), sequence (P21918 whole entry): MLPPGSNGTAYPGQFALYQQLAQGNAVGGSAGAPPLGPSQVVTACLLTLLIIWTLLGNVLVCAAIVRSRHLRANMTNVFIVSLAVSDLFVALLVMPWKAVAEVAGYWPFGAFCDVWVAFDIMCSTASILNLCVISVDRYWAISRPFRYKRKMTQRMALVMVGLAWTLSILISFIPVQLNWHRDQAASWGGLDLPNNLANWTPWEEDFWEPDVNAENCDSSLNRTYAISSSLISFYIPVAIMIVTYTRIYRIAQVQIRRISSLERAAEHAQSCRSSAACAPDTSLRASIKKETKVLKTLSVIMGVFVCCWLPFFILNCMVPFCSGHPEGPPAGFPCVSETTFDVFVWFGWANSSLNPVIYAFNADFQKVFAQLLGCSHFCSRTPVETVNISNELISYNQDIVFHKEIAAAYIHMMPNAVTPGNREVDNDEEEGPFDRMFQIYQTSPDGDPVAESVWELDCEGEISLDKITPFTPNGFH
Description: PDSP Primary Binding target: DRD5 - Compounds are tested at 10 uM concentration, plate are incubated at room temperature in the dark for 90 minutes. Reaction are stopped by vacuum filtration onto 0.3% polyethyleneimine soaked filter mats using Filtermate harvester. Scintilation cocktail is then melted onto microwave-dried filters on a hot plate and the radio activity is counted in Microbia counter.

Kappa-type opioid receptor (Homo sapiens), sequence (P41145 whole entry): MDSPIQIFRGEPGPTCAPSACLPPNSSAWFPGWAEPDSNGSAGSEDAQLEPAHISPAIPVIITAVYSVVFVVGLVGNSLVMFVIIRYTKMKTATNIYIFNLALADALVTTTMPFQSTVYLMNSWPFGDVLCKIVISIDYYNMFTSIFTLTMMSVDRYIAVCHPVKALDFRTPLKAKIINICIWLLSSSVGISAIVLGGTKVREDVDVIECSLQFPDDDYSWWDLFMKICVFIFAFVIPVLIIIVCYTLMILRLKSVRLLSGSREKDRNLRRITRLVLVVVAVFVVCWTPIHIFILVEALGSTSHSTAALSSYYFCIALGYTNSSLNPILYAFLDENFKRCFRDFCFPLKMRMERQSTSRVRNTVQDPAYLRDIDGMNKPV
D(3) dopamine receptor (Homo sapiens), sequence (P35462 whole entry): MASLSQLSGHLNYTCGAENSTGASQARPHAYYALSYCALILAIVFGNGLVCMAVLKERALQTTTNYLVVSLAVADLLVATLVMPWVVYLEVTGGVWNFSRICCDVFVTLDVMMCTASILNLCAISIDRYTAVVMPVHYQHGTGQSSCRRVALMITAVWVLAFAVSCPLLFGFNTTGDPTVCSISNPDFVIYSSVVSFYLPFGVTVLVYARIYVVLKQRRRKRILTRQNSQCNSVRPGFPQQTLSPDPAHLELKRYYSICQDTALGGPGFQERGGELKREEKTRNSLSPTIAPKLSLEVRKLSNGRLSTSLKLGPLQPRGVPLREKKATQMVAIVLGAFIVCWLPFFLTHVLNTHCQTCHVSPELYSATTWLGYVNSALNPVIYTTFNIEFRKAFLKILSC
Delta-type opioid receptor (Homo sapiens), sequence (P41143 whole entry): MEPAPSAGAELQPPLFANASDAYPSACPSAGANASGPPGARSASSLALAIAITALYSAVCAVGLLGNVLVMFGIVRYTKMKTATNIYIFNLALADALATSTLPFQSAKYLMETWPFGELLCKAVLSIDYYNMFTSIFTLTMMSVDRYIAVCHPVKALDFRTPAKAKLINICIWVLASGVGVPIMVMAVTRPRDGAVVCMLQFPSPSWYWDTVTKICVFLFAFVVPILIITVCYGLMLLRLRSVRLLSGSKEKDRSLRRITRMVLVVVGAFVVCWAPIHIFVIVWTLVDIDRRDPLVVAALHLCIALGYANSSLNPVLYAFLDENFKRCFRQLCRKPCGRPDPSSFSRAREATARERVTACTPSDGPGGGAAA

In the case of `C[C@@H](NCCc1ccc(O)cc1)[C@@H](O)c1ccc(O)cc1` (relative stereo), the inhibition in assay [1] is 23.2%; in assay [2] it was 17.5%; in [3] it was 34.1%; in assay [4] it was -0.38%; in assay [5], 75%; in assay [6], 3.91%. Further, the inhibition in assay [7] was -0.38%; in assay [8], 33%; in assay [9], 36.5%; in assay [10] it was 34.6%; in assay [11] it was 24.4%.

For `CCCCCNC(=O)NS(=O)(=O)c1cc([N+](=O)[O-])ccc1NC1CCCCC1`, the inhibition was 12.8% in assay [12]; 14.7% in [1]; 8.56% in [2]; -9.68% in [3]; 11.4% in assay [4]; 16% in assay [5]. The inhibition was -9.24% in [6]; 4.78% in [8]; 4.44% in assay [13]; -4.07% in assay [9]; 52.2% in assay [10]; -6.06% in [11].

As to `O=C(Cc1ccccc1)Nc1nc2ccc(Cl)cc2c2nc(-c3ccco3)nn12`, the inhibition in [12] was -2.97%; in [1], 12.4%; in [3], -0.19%; in [4], -5.69%; in [5], -4.19%; in assay [6] it was -4.43%. The inhibition in assay [7] was 3.62%; in assay [8], -5.46%; in assay [9], 2.33%; in assay [10], 30.2%; in assay [11] it was 5.61%.

In the case of `O=C(Nc1ccc(Cl)cc1)Nc1cccc(-c2cccc(N3CCCC3)n2)c1`, the inhibition in [1] was 7.04%; in assay [3], 10.6%; in assay [5], 47.3%; in assay [6], 12.7%; in assay [7], 3.23%; in assay [8], 18.8%. In addition, the inhibition in [10] was 48.5%; in assay [11], 9.22%.

Regarding `Cc1cc(NC(=O)Nc2ccc(N(C)C)cc2)c2cc(F)cc(F)c2n1`, the inhibition in assay [1] is 22.3%; in assay [3], 73.3%; in assay [4], 20.1%; in assay [5], 96%; in assay [6] it was 52.8%; in assay [8], 2.31%. Also, the inhibition in assay [9] is 16.5%; in assay [10], 34.5%; in assay [11] it was -7.92%.

Turning to `COc1ccc(Br)cc1S(=O)(=O)NC(=O)/C=C/c1ccccc1Cc1ccc2ccccc2c1`, the inhibition is -2.73% in assay [12]; 1.49% in assay [1]; -2.75% in assay [2]; -4.73% in assay [3]; 26.2% in assay [4]; 11% in assay [5]. Also, the inhibition in [6] was 40.7%; in assay [8], -8.83%; in [13] it was -9.64%; in assay [9], -2.54%; in assay [10], 64.7%; in assay [11], 4.85%.

Take `N#Cc1c(N)nc(SCC(N)=O)c(C#N)c1-c1ccc(OCC2CC2)cc1`: the inhibition is 3.97% in assay [12]; 89% in [1]; -1.99% in assay [2]; 12.7% in [3]; 62% in assay [5]; -6.03% in assay [6]. Besides, the inhibition in assay [7] is -1.71%; in assay [8], 34.5%; in assay [10], -6.34%; in assay [11] it was 1.45%.

As for `Cc1nc(C(=O)N2CCC[C@H]2Cc2nnc(-c3ccccc3)o2)c(-c2ccccc2F)s1`, the inhibition in assay [12] was 17.4%; in [1], 57.7%; in [2], -2.06%; in [3], 92.6%; in assay [4], 4.37%; in assay [5], 35.9%. The inhibition in [6] was 71.2%; in assay [8], 39.1%; in [9], -2.08%; in assay [10], 45%; in assay [11], -9.02%.

On to `CC(C)NCC(O)COc1ccc(CCOCC2CC2)cc1` (stereo not given), for which the inhibition is -5.1% in [12]; 20.5% in [1]; 3.69% in [2]; 32.1% in [3]; 91.7% in [5]; -4.15% in [6]. The inhibition in assay [7] was 20.5%; in assay [8] it was 22.5%; in assay [13], 6.71%; in assay [10], 5.81%; in [11], 0.88%.

For `CCCCC#Cc1nc(NC)c2ncn([C@@H]3O[C@H](CO)[C@@H](O)[C@H]3O)c2n1`, the inhibition in assay [12] was 2.49%; in [1], 8.14%; in [2], 9.12%; in [3] it was -4.41%; in [4], 17.8%; in [5], -7.49%. Besides, the inhibition is 22.8% in assay [6], 0.76% in assay [8], 32.7% in [10] and -6.77% in [11].

`CCN(CC)CCCCC1CCN(CC(=O)N2c3ccccc3C(=O)Nc3cccnc32)CC1`: the inhibition was -7.42% in assay [12]; 24.6% in assay [2]; 13.9% in assay [3]; 81.4% in [6]; 12.9% in assay [7]; 95.5% in assay [8]. The inhibition is 82.5% in assay [13], 5.55% in assay [9], 13.8% in assay [10] and 89.1% in [11].
